Assay results taken from US6743440B1, “Polycyclic quinone and ionophore composition for the synergistic reduction of methane formation in ruminant animals” (Arkion Life Sciences LLC, priority 1999, dated 2004).
Marks after values point to notes of the source that are not given here.

Tested on: rumen fluid
Assay: in vitro batch culture ruminal fermentation
Format: cell-based, steer
Settings: for decrease of methane production compared to the control diet: dose effect experiment; for Hydrogen / Methane / NH3—N / TVFA (total volatile fatty acids) / Total Gas / VFA C2 (acetate) / VFA C3 (propionate) / VFA C4 (butyrate) / VFA C5 (valerate) / VFA Ci4 (isobutyrate) / VFA Ci5 (isovalerate): high sulfur diet (1.09% S), 24 h, MoO4 25 ppm, M 5 ppm, M + AQ 5 + 10 ppm
[1] = AQ 10 ppm, Ionophores 5 ppm, AQ plus Ionophore 10 + 5 ppm
[2] = intermediate and high levels of 9,10 AQ, P<0.05

Row | Structure (SMILES) | Methane Concentration [1] [Umole/24 hr. fermentation] | Hydrogen (AQ 10 ppm) | Methane (AQ 10 ppm) | NH3—N (AQ 10 ppm) | TVFA (total volatile fatty acids) (AQ 10 ppm) | Total Gas (AQ 10 ppm) | VFA C2 (acetate) (AQ 10 ppm) | VFA C3 (propionate) (AQ 10 ppm) | VFA C4 (butyrate) (AQ 10 ppm) | VFA C5 (valerate) (AQ 10 ppm) | VFA Ci4 (isobutyrate) (AQ 10 ppm) | VFA Ci5 (isovalerate) (AQ 10 ppm) | further results
1 | O=C1c2ccccc2C(=O)c2ccccc21 [AQ, 9,10-anthraquinone] | 265 | 4.27^ab μMoles/24 h fermentation | 265^b μMoles/24 h fermentation | 37.2^a mg/dl | 118.0^c mM | 89.2^cb mL/24 h fermentation | 48.4^d moles/100 mol | 28.1^b moles/100 mol | 17.3^a moles/100 mol | 3.3^b moles/100 mol | 1.2^ab moles/100 mol | 1.7^b moles/100 mol | Total VFA relative to the control and untreated high sulfur diet (9,10 AQ dose effect experiment): numerically but not statistically decreased; hydrogen concentration (9,10 AQ dose effect experiment): unaffected; decrease of methane production compared to the control diet (10 ppm 9,10 AQ): 21%; decrease of methane production compared to the control diet (25 ppm 9,10 AQ): 41%; activity at 10 ppm (AQ 10 ppm, Ionophores 5 ppm, AQ plus Ionophore 10 + 5 ppm, control = 403, read-out: Methane concentration, Percent of Control): 66%; ammonia-N (highest level of 9,10 AQ, P<0.05): decreased; percentages of C3, C4 and C5 (intermediate and high levels of 9,10 AQ): increased; molar proportion of C2 [2]: decreased; total gas produced [2]: decreased; effect on fermentation end-products compared to the untreated diets (low level of 9,10 AQ (1 ppm)): no effect
2 | CC[C@@]1([C@H]2O[C@H]([C@H]3O[C@@](O)(CO)[C@H](C)C[C@@H]3C)C[C@H]2C)CC[C@H]([C@@]2(C)CC[C@]3(C[C@H](O)[C@@H](C)[C@@H]([C@H](C)[C@H](OC)[C@@H](C)C(=O)[O-])O3)O2)O1.[Na+] [M, monensin sodium] | 299 | 4.17^ab μMoles/24 h fermentation | 299^b μMoles/24 h fermentation | 36.0^a mg/dl | 117.5^c mM | 85.2^c mL/24 h fermentation | 52.4^c moles/100 mol | 28.0^b moles/100 mol | 13.6^d moles/100 mol | 3.0^c moles/100 mol | 1.3^ab moles/100 mol | 1.7^b moles/100 mol | Methane concentration, Percent of Control (AQ 10 ppm, Ionophores 5 ppm, AQ plus Ionophore 10 + 5 ppm, control = 403): 74%
3 | [O]=[Mo](=[O])([O-])[O-] [MoO4] | – | 4.13^ab μMoles/24 h fermentation | 451^a μMoles/24 h fermentation | 37.9^a mg/dl | 123.9^b mM | 94.1^ab mL/24 h fermentation | 55.2^b moles/100 mol | 24.2^c moles/100 mol | 15.1^c moles/100 mol | 2.7^d moles/100 mol | 1.2^b moles/100 mol | 1.6^b moles/100 mol | –
